Measured values reported in the NIST ThermoML archive (doi:10.1021/acs.jced.9b00100).
± gives the expanded uncertainty stated by the source.

Assays:
[1] = refractive index (Na D-line) (dimensionless); details: 293.15 K; 101.33 kPa; Liquid; Standard Abbe refractometry
[2] = Liquid, Ebulliometric method (Recirculating still)

refractive index [1]	vapor or sublimation pressure ([2]; 342.34 K)	vapor or sublimation pressure ([2]; 342.95 K)	vapor or sublimation pressure ([2]; 352.05 K)	vapor or sublimation pressure ([2]; 352.65 K)	vapor or sublimation pressure ([2]; 361.65 K)	vapor or sublimation pressure ([2]; 362.55 K)	Compound
1.3893 ± 0.002	32.7 ± 0.34 kPa	34.3 ± 0.34 kPa	47.8 ± 0.27 kPa	48.7 ± 0.27 kPa	66.2 ± 0.31 kPa	68.1 ± 0.31 kPa	CCCC(C)=O [pentan-2-one]
1.3848 ± 0.002	31.5 ± 0.29 kPa		49.5 ± 0.31 kPa		73.2 ± 0.33 kPa		CCCO [propan-1-ol]
1.3989 ± 0.002		13.4 ± 0.24 kPa		21.4 ± 0.24 kPa		33.4 ± 0.25 kPa	CCCCO [butan-1-ol]
